Experimental data as given in patent US20220218679A1, “NOVEL COMPOUNDS AND PHARMACEUTICAL COMPOSITIONS THEREOF FOR THE TREATMENT OF INFLAMMATORY DISORDERS” (Galapagos NV, priority 2019, published 2022).

Experiments:
[1] = tested on: mouse CIA model; test: Mouse collagen induced arthritis (CIA) model; assay type: in vivo, DBA1/J mice; settings: 3, 10 and 30 mg/kg b.i.d., versus disease vehicle group
Procedure: Completed Freund's adjuvant (CFA) and incomplete Freund's adjuvant (IFA) were purchased from Difco. Bovine collagen type II (CII), lipopolysaccharide (LPS), and Enbrel was obtained from Chondrex (Isle d'Abeau, France); Sigma (P4252, L'Isle d'Abeau, France), Whyett (25 mg injectable syringe, France) Acros Organics (Palo Alto, Calif.), respectively. All other reagents used were of reagent grade and all solvents were of analytical grade.
DBA1/J mice (male, 7-8 weeks old) were obtained from Charles River Laboratories (France). Mice were kept on a 12 h light/dark cycle (07 h 00-19 h 00). Temperature was maintained at 22° C., and food and water were provided ad libitum.
5.1.3. Collagen Induced Arthritis (CIA)
One day before the experiment, CII solution (2 mg/mL) was prepared with 0.05 M AcOH and stored at 4° C. Just before the immunization, equal volumes of adjuvant […] and CII were mixed by a homogenizer in a pre-cooled glass bottle in an ice water bath. Extra adjuvant and prolonged homogenization may be required if an emulsion was not formed. […]
The therapeutic effects of the compounds were tested in the mouse CIA model. […] Body weight and clinical score, were recorded twice a week. […]
Arthritis is scored according to the method of (Khachigian, 2006; Lin et al., 2007; Nishida et al., 2004). […]
For each readout, mean and sem are calculated. […]

[2] = tested on: MC903 induced atopic dermatitis in mice; test: Murine prophylactic model of atopic dermatitis induced by topical application of MC903; assay type: in vivo, BALB/cN mice or CD1/Swiss mice; settings: 10 mg/kg b.i.d., versus disease vehicle group
Excerpt: 5.5. Murine Prophylactic Model of Atopic Dermatitis Induced by Topical Application of MC903
Methylcellulose 0.5% was obtained from VWR (cat no. AX021233). MC903 (calcipotriol) was obtained from Tocris Bioscience (cat no. 2700/50). ProSense® 680 was obtained from PerkinElmer (cat no. NEV10003). RNAlater® was obtained from Ambion (cat no. AM7021). Imalgene® 1000 (Merial) and Rompun® 2% (Bayer) were obtained from Centravet (cat no. IMA004-6827812 and ROM001-6835444).
BALB/cN mice (female, 18-20 g body weight) or CD1/Swiss mice (female, 24-26 g body weight) were obtained from Janvier Labs (France). Mice were kept on a 12 h light/dark cycle (07:00-19:00). Temperature was maintained at 22±2° C., food and water were provided ad libitum. […]
The thickness of both ears was measured (after anaesthesia induced by isoflurane inhalation) at initiation of the study, every other day and at sacrifice using a thickness gage (Mitutoyo, Absolute Digimatic, 547-321).
Body weight was assessed at initiation of the study, every other day and at sacrifice.
On D4, mice from all groups receive ProSense® 680 probe (0.8 nmol/10 g, IP). […] Granulocyte infiltration was measured using in vivo molecular imaging (Bruker In-Vivo Xtreme imaging system, excitation wavelength: 630 nm, emission wavelength: 700 nm, acquisition time: 5 seconds). […]
For each readout, mean and sem were calculated. […]

COc1cn2nc(CCC(C)(C)O)cc2cc1NC(=O)c1cccn(C2CC2)c1=O [Compound 1, 1-cyclopropyl-N-[2-(3-hydroxy-3-methylbutyl)-6-methoxypyrazolo[1,5-a]pyridin-5-yl]-2-oxopyridine-3-carboxamide]
statistically significant effect: effect on bone erosion Larsen Score [1] | effect on clinical score [1] | effect on ear thickening at D8 [2] | effect on granulocyte infiltrate [2]
